Experimental data: patent publication US10697020B2, “MicroRNA-129 as a biomarker for colorectal cancer” (THE RESEARCH FOUNDATION FOR THE STATE UNIVERSITY OF NEW YORK, priority 2013, dated 2020)
Where two headings read alike, the source gives them in different places.

Columns and labels:
HCT116 cells [1] = assay: 5-FU treatment and cytotoxicity assay (WST-1); type: cell-based; details: Homo sapiens, HCT-116, 72 h, read-out: IC50 (50% growth inhibition, WST-1)
Protocol: Twenty-four hours after transfection, HCT116 cells were plated in 96-well plates at 2×10^3 cells per well in triplicates in 100 μl of medium. After 24 hours, fresh medium containing 5-FU alone (ranged from 1 to 4 μM) or miR-129 precursor alone (ranged from 10 nM to 40 nM) or 5-FU and miR-129 together (at a constant ratio 1:10, with increasing concentrations of both compounds) were added, and cells were cultured for an additional 72 hours. Cell viability was measured using the WST-1 assay, and concentration-dependent curves were generated based on the cell viability. The combination index was calculated by CompuSyn software. See, Chou T C et al. (2007).

HCT116 cells [2] = assay: Colorectal cancer xenografts (HCT116) in NOD/SCID mice, tumor volume; type: in vivo; details: day 24
Protocol: When solid and palpable tumors with an average volume of 100-150 mm^3 were formed (at day 14), mice were randomly separated into four groups such that each group was treated either with negative control miRNA, miR-129 alone, 5-FU alone or miR-129 and 5-FU together. The miRNAs were complexed with siPORTamine and injected intratumorally while 5-FU (50 μg g^−1) was injected systemically via the tail vein. All injections were provided in 3-day intervals for a total of three times before the tumors were collected at day 24. […] Importantly, despite the overexpression, the expression levels of miR-129 copy number remained within the physiological range (less than 20 copies/cell based on cycle threshold value at 30, which is equal to the expression of miR-129 in normal colon mucosa). Moreover, the control tumor xenografts had no miR-129 expression (cycle threshold value at 35).
Ten-twelve week old NOD/SCID mice (Jackson Laboratories, Bar Harbor, […]., USA) were used for tumor implantation. All animal procedures were approved by the Stony Brook University Institutional Animal Care and Use Committee (IACUC). The tumor implantation and miRNA injection protocol was modified from Trang et al. (see Trang P., et al., Oncogene. (2010) 29(11):1580-7). The mice were anesthetized by isoflurane inhalation. HCT116 cells were subcutaneously injected into the lower back areas of the mice using 2.5×10^6 cells in 100 μl McCoy's 5A with 50% matrigel (BD Biosciences). The tumor size was measured using a caliper and tumor volume was calculated using the formula V=length×width^2/2. When tumor volumes reach 100-150 mm^3 at day 14 post-injection, the mice were randomly assigned into four groups. For the first two groups, 10 μM negative miRNA or miR-129 precursor (Ambion) complexed with 1.6 μl siPORTAmine (Ambion) in 50 μl McCoy's 5A was injected into the tumors every three days. For the third group, 5-FU (Sigma-Aldrich) was injected at 50 μg/g via the tail vein every three days. Finally, for the last group, both miR-129 precursor and 5-FU were injected as described above. The mice were euthanized on day 24 post-injection by CO2 inhalation, and tumors were dissected out for RNA isolation.

O=c1[nH]cc(F)c(=O)[nH]1 [5-FU, 5-fluoro-1H-pyrimidine-2,4-dione, reference compound]
IC50 (HCT116 cells [1]; 5-FU alone): 2.3 µM
IC50 (HCT116 cells [1]; 5-FU when combined with miR-129 (fixed ratio 1:10)): 0.6 µM
inhibition of tumor growth (in words) (HCT116 cells [2]; HCT116 xenograft, compared with negative miRNA or single agents): strong inhibitory effect
average tumor volume, % of the control group (HCT116 cells [2]; treated days 14, 17, 20, miRNA intratumoral with siPORTamine, 5-FU 50 μg/g tail vein, control negative miRNA): 48.4%
